Test results: ChEMBL document CHEMBL1201862, “PubChem BioAssay data set” (2004)
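Each compound was tested at five concentrations against cells in 96-well plates for 48 hours. GI50 = concentration required for 50% inhibition of growth.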 Activity calls are given as the source filed them. Rule as the data show it: active = GI50 up to about 1.1 µM and inactive = higher.

What was measured:
Assay in all cases: inhibition of tumour cell growth, NCI panel, 48 h
SK-OV-3 = system: SK-OV-3
COLO 205 = system: COLO 205
HOP-62 = system: HOP-62
UACC-62 = system: UACC-62
U-251 = system: U-251
HOP-92 = system: HOP-92
NCI-H226 = system: NCI-H226
NCI-H522 = system: NCI-H522
A498 = system: A498
OVCAR-3 = system: OVCAR-3
SNB-19 = system: SNB-19
SF-268 = system: SF-268
TK-10 = system: TK-10
SK-MEL-2 = system: SK-MEL-2
MOLT-4 = system: MOLT-4
OVCAR-4 = system: OVCAR-4
LOX IMVI = system: LOX IMVI
MDA-N = system: MDA-N
UO-31 = system: UO-31

Measured: GI50

COc1cc2c(cc1OC)C1c3ccccc3CCN1CC2 (stereo unspecified)
inactive: SK-OV-3 > 100 µM | COLO 205 58.7 µM | HOP-62 70.8 µM | UACC-62 58.1 µM | U-251 95.3 µM | HOP-92 59.3 µM | NCI-H226 41.2 µM | NCI-H522 > 100 µM | A498 > 100 µM | OVCAR-3 > 100 µM | SNB-19 > 100 µM | SF-268 > 100 µM | TK-10 > 100 µM | SK-MEL-2 > 100 µM | MOLT-4 78.3 µM | OVCAR-4 > 100 µM | LOX IMVI 48.6 µM | MDA-N 41.1 µM

CSc1nc2c(c(=O)[nH]1)N=C(c1ccc([N+](=O)[O-])cc1)CC(c1ccccc1)N2 (stereo unspecified)
inactive: COLO 205 55.1 µM | HOP-62 > 100 µM | UACC-62 27.4 µM | U-251 33.6 µM | HOP-92 > 100 µM | NCI-H226 > 100 µM | NCI-H522 23.9 µM | A498 > 100 µM | OVCAR-3 55.6 µM | SNB-19 > 100 µM | UO-31 50 µM | SK-MEL-2 28.3 µM | MOLT-4 31.3 µM | OVCAR-4 28.7 µM | LOX IMVI 28.1 µM | MDA-N 38.2 µM

Cc1ccc(OC2CC(n3cnc4ncnc(Cl)c43)OC2Oc2ccc(C)cc2)cc1 (stereo unspecified)
inactive: SK-OV-3 > 100 µM | COLO 205 14.8 µM | HOP-62 27.3 µM | UACC-62 14.1 µM | U-251 36.1 µM | HOP-92 8.77 µM | NCI-H226 13.7 µM | NCI-H522 5.36 µM | A498 45.6 µM | OVCAR-3 14.6 µM | SNB-19 16.1 µM | SF-268 18.7 µM | TK-10 > 100 µM | UO-31 11.1 µM | SK-MEL-2 13.6 µM | MOLT-4 4.49 µM | OVCAR-4 27.9 µM | LOX IMVI 5.51 µM | MDA-N 22.4 µM

Cn1c(=O)c2c(no[n+]2[O-])c2ccccc21
inactive: SK-OV-3 33 µM | COLO 205 17.7 µM | HOP-62 17.3 µM | UACC-62 16.7 µM | U-251 15.8 µM | HOP-92 20.2 µM | NCI-H226 16.9 µM | NCI-H522 13.6 µM | A498 31.9 µM | OVCAR-3 22.1 µM | SNB-19 26.4 µM | SF-268 20.5 µM | TK-10 27.8 µM | UO-31 24.3 µM | SK-MEL-2 12.4 µM | MOLT-4 10.5 µM | OVCAR-4 18.4 µM | LOX IMVI 10.9 µM | MDA-N 26.4 µM

COc1ccc(CCN2CCc3c(C)c(C#N)c4nc5ccccc5n4c32)cc1OC
inactive: SK-OV-3 81.3 µM | COLO 205 30.3 µM | HOP-62 33.7 µM | UACC-62 24.2 µM | U-251 15.6 µM | HOP-92 22.8 µM | NCI-H226 27.5 µM | NCI-H522 21.4 µM | A498 54.6 µM | OVCAR-3 27.2 µM | SNB-19 > 100 µM | SF-268 35.1 µM | TK-10 64.1 µM | UO-31 36.3 µM | SK-MEL-2 16.3 µM | OVCAR-4 26 µM | LOX IMVI 37.7 µM | MDA-N 19.1 µM

N#CC1(C#N)[C@@H]2CCC=C(Sc3ccccc3)[C@@H]21
inactive: SK-OV-3 19.5 µM | COLO 205 17.3 µM | UACC-62 18.4 µM | U-251 16.1 µM | HOP-92 14.9 µM | NCI-H226 13.9 µM | NCI-H522 10.8 µM | A498 31.7 µM | OVCAR-3 17.2 µM | SNB-19 23.9 µM | SF-268 20.1 µM | TK-10 14.6 µM | SK-MEL-2 14.6 µM | MOLT-4 14.5 µM | OVCAR-4 14.3 µM | LOX IMVI 13.9 µM | MDA-N 13.9 µM

CCOc1ccc2c(c1)c(=O)c1c(NCCN(CC)CC)ccc3nnn2c31
inactive: SK-OV-3 > 100 µM | COLO 205 33.9 µM | HOP-62 > 31.4 µM | UACC-62 > 100 µM | U-251 19.7 µM | HOP-92 29.2 µM | NCI-H226 11.9 µM | NCI-H522 7.6 µM | A498 > 100 µM | OVCAR-3 > 100 µM | SNB-19 > 79.8 µM | SF-268 21.5 µM | TK-10 16.7 µM | UO-31 3.4 µM | SK-MEL-2 > 100 µM | MOLT-4 3.34 µM | OVCAR-4 11.9 µM | LOX IMVI 11.4 µM | MDA-N 17.5 µM
